This note sets out measurements from PMC12767106, “In Situ Assembly of Transformable Monopeptide on Activated Neutrophils Attenuates NETs‐Induced Hepatocellular Carcinoma Metastasis by Disrupting NE Nuclear Translocation” (Advanced Science, 2025).

Data set [1] in a line: Particle diameter by DLS and TEM. The data set is classed as physicochemical. The conditions noted are these: 20 µM NPs in H2O:DMSO 99:1, before interaction with NE. An excerpt: Submitted to Advanced Science
We obtained hepatocellular carcinoma (TCGA-LIHC) transcriptomic data from the Cancer Genome Atlas (TCGA) database (https://portal.gdc.cancer.gov/), quantified as transcripts per million (TPM). Tumor samples with complete clinical annotations (overall survival (OS), age, stage, etc.) were retained for further analysis.
Another HCC gene expression profile under the accession number E-TABM-36, containing 44 samples with available survival prognosis information, was obtained from the EBI Array database (https://www.ebi.ac.uk/arrayexpress/) as a validation set. […]
after being further diluted with DMSO (995, 795, 595, 395, 195, 95, 15, and 0 μL). To confirm the generation of NPs, measurements were made of the ultraviolet-visible (UV-vis) absorbance (UV-2600i, Japan) at approximately 410 nm and the fluorescence spectra (Cary 5000, Malaysia) at approximately 635 nm of solutions with different water contents. […]
temperature. […] In addition, the variation of fluorescence emission spectra of PpIX by […]
Pyrene molecules were employed as an indicator to determine the critical aggregation concentration (CAC) of nanoparticles by comparing the fluorescence of their third and first emissive peaks. […] The fluorescence spectra of pyrene (excitation, 335 nm) in different NPs dilutions were recorded. […]

A short description of data set [2]: Critical aggregation concentration, pyrene probe. The data set is classed as physicochemical. The conditions noted are these: I3/I1 ratio, excitation 335 nm, 37 °C, 2 h, NPs 0.01-50 µM. On the procedure: Submitted to Advanced Science temperature. Following the incubation, 10 µL of the solution was added to a copper mesh at 0 and 24 h. Filter paper was used to remove any extra droplets after an overnight stay. The samples were then stained for five minutes with uranyl acetate and then rinsed for one minute with water (10 µL). Finally, dried samples were observed by TEM (Talos 120C, Thermo Fisher Scientific, USA). DLS (Zetasizer Nano ZS, UK) was used to assess the solution for hydrodynamic size and zeta potential at 0 and 24 h following the incubation. Then, the nanofiber structure at 0 h and 24 h after incubation of FTP-NPs was examined with Circular Dichroism (CD) Spectra (Chirascan, UM, Britain). In addition, the variation of fluorescence emission spectra of PpIX by […]
transformation of FTP-NPs.
Pyrene molecules were employed as an indicator to determine the critical aggregation concentration (CAC) of nanoparticles by comparing the fluorescence of their third and first emissive peaks. […] The fluorescence spectra of pyrene (excitation, 335 nm) in different NPs dilutions were recorded. The fluorescence intensity ratio (I3/I1) of the third and first emissive peaks was measured for CAC calculation. […]

Take “PpIX-GGGAAK-EAIPMSIPPEVK [NFTP-NPs, nanoparticles of the non-fibrillar transformable control peptide NFTP]”: the diameter in data set [1] amounted to 26.13±3.23 nm. Further, the “critical aggregation concentration (CAC)” value in data set [2] was 3.75 µM.
As to PpIX-GFFVLK-EAIPMSIPPEVK [FTP-NPs], the diameter in data set [1] was 24.27±4.50 nm and ≈ 25 nm. Further, in data set [2], the “critical aggregation concentration (CAC)” value was 5.45 µM.
